Measured values from patent US5358712A, “Radiopharmaceutical agents for the detection of Alzheimer's disease” (Regents of the University of Minnesota, priority 1993, dated 1994).

Legend:
[1] = Tissue distribution (biodistribution) of radioiodinated compound in the rat; conditions: rat, iv; for tissue uptake at 1 h: 60 min; for tissue uptake at 3 h: 180 min
Protocol: Four groups of male Wistar rats (with four animals per group) weighing 200-350 g were used in these experiments. Each animal received, while under ether anesthesia, an intravenous injection of the radiotracer (10-20 μCi) dissolved in 0.1 ml of 50% aqueous ethanol. At 5, 30, and 60 and 180 min. post-injection, blood was collected from the anesthetized animals by cardiac puncture, and the animal was immediately sacrificed by cardiectomy. The organs and tissues of interest were harvested, transferred to preweighed tubes and counted in a Beckman gamma counter. The tubes were subsequently reweighed to give the weight of the corresponding tissues. Preweighed tubes containing ^1 -ml samples of a 1:100 dilution of the injection dose were also counted and used as reference for calculating the tissue accumulation of radioactivity. The accumulation of radiotracer was expressed as a percentage of injected dose per gram of tissue.

[2] = Blocking experiments: inhibition of radiotracer accumulation in the rat by coadministered compound; format: in vivo, rat (male Wistar); conditions: rat, iv, rat, iv, 60 min
Protocol: *Animals in group 1 received an iv injection of (+)4-[^125 l]HIPP
only. For groups 2, 3, and 4, the radiotracer was coadministered with the
hydrochlorides of (+)7 (0.53 mg/kg), (-)7 (0.53 mg/kg) and vesamicol (0.3
Four groups of male Wistar rats (n=3) were used in these experiments. All animals received an iv dose of 8-10 μCi of the radiotracer in 0.1 ml of 50% aq. ethanol. Additionally, in groups 2, 3 and 4, the radiotracer was coadministered with (+)-HBrPP.HCl(1.3 μmol/kg), (-)-HBrPP.HCl(1.3 μmol/kg) and (dl)-vesamicol hydrochloride (1.1 μmol/kg), respectively. At 60 min. post-injection, blood was collected by cardiac puncture and the animals sacrificed as described above. The data was analyzed as outlined above.
NOTE: The dose of radiotracer injected was 5-7 mCi. Group I was the
control, injected with the radiotracer only. Group II included the
simultaneous injection of "cold"(dl)3-HIPP (HCl) (0.53 mg/kg). Group III
included the simultaneous injection of (dl) vesamicol (HCl) (0.31 mg/kg).
All rats were sacrificed at one hour postinjection.
NOTE: Group I was the control, injected with the radiotracer only. Group
II included the simultaneous injection of "cold"(dl)3-HIPP (HCl) (0.53
mg/kg). Group III included the simultaneous injection of (dl) vesamicol
hydrochloride (0.31 mg/kg). The dose of radiotracer was 8-9 μCi. All
rats were sacrificed at one hour postinjection.
NOTE: Group I received (+)[^125 l]13 only. Group II received the (+)
radiotracer coinjected with 0.31 mg/kg (dl)vesamicol hydrochloride. Group
III received (-)[^125 l]13 only. Group IV received the (-) radiotrace
coinjected with 0.31 mg/kg (dl)vesamicol hydrochloride. All animals were
sacrificed at one hour postinjection. The dose of radiotracer injected pe

[3] = kidney, radioactivity in kidney
[4] = muscle, radioactivity in muscle
[5] = spleen, radioactivity in spleen
[6] = blood, radiotracer only (control), read-out: radioactivity in blood
[7] = brain, + (dl)-vesamicol HCl 0.3 (Table 3) or 0.31 mg/kg, read-out: radioactivity in brain
[8] = brain, radiotracer only (control), read-out: radioactivity in brain
[9] = heart, + (dl)-vesamicol HCl 0.3 (Table 3) or 0.31 mg/kg, read-out: radioactivity in heart
[10] = heart, radiotracer only (control), read-out: radioactivity in heart
[11] = kidney, + (dl)-vesamicol HCl 0.3 (Table 3) or 0.31 mg/kg, read-out: radioactivity in kidney
[12] = kidney, radiotracer only (control), read-out: radioactivity in kidney
[13] = liver, + (dl)-vesamicol HCl 0.3 (Table 3) or 0.31 mg/kg, read-out: radioactivity in liver
[14] = liver, radiotracer only (control), read-out: radioactivity in liver
[15] = lung, + (dl)-vesamicol HCl 0.3 (Table 3) or 0.31 mg/kg, read-out: radioactivity in lung
[16] = lung, radiotracer only (control), read-out: radioactivity in lung
[17] = muscle, + (dl)-vesamicol HCl 0.3 (Table 3) or 0.31 mg/kg, read-out: radioactivity in muscle
[18] = muscle, radiotracer only (control), read-out: radioactivity in muscle
[19] = spleen, + (dl)-vesamicol HCl 0.3 (Table 3) or 0.31 mg/kg, read-out: radioactivity in spleen
[20] = spleen, radiotracer only (control), read-out: radioactivity in spleen

SMILES: OC(CN1CCC(c2ccccc2)CC1)c1ccc([125I])cc1 (single isomer, unassigned; (+)) [(+)-[^125 l]13, 1-(4-Iodophenyl)-2-(4-phenylpiperidinyl)ethanol]
- tissue uptake at 5 min ([1]; blood, radioactivity in blood): 0.1 %ID/g
- tissue uptake at 1 h ([1]; blood, radioactivity in blood): 0.03 %ID/g
- tissue uptake at 5 min ([1]; brain, radioactivity in brain): 1.43 %ID/g
- tissue uptake at 1 h ([1]; brain, radioactivity in brain): 1.29 %ID/g
- tissue uptake at 5 min ([1]; heart, radioactivity in heart): 1.34 %ID/g
- tissue uptake at 1 h ([1]; heart, radioactivity in heart): 0.25 %ID/g
- tissue uptake at 5 min [1, 3]: 3.12 %ID/g
- tissue uptake at 1 h [1, 3]: 1.86 %ID/g
- tissue uptake at 5 min ([1]; liver, radioactivity in liver): 1.19 %ID/g
- tissue uptake at 1 h ([1]; liver, radioactivity in liver): 2.18 %ID/g
- tissue uptake at 5 min ([1]; lung, radioactivity in lung): 7.87 %ID/g
- tissue uptake at 5 min [1, 4]: 0.33 %ID/g
- tissue uptake at 1 h [1, 4]: 0.14 %ID/g
- tissue uptake at 5 min [1, 5]: 0.92 %ID/g
- tissue uptake at 1 h [1, 5]: 0.9 %ID/g
- tissue uptake at 1 h [2, 6]: 0.05 %ID/g
- tissue uptake at 1 h [2, 7]: 0.24 %ID/g
- tissue uptake at 1 h [2, 8]: 0.87 %ID/g
- tissue uptake at 1 h [2, 9]: 0.08 %ID/g
- tissue uptake at 1 h [2, 10]: 0.22 %ID/g
- tissue uptake at 1 h [2, 11]: 0.41 %ID/g
- tissue uptake at 1 h [2, 12]: 1.87 %ID/g
- tissue uptake at 1 h [2, 13]: 2.53 %ID/g
- tissue uptake at 1 h [2, 14]: 1.85 %ID/g
- tissue uptake at 1 h [2, 15]: 0.42 %ID/g
- tissue uptake at 1 h [2, 16]: 1.01 %ID/g
- tissue uptake at 1 h [2, 17]: 0.06 %ID/g
- tissue uptake at 1 h [2, 18]: 0.14 %ID/g
- tissue uptake at 1 h [2, 19]: 0.33 %ID/g
- tissue uptake at 1 h [2, 20]: 0.88 %ID/g

SMILES: OC(Cc1cccc([125I])c1)CN1CCC(c2ccccc2)CC1 (single isomer, unassigned; (+)) [(+)-[^125 l]12, 2-Hydroxyl-3-(3-iodophenyl)-1-[1-(4-phenylpiperidinyl)]propane]
- tissue uptake at 5 min ([1]; blood, radioactivity in blood): 0.08 %ID/g
- tissue uptake at 1 h ([1]; blood, radioactivity in blood): 0.09 %ID/g
- tissue uptake at 3 h ([1]; blood, radioactivity in blood): 0.08 %ID/g
- tissue uptake at 5 min ([1]; brain, radioactivity in brain): 1.03 %ID/g
- tissue uptake at 1 h ([1]; brain, radioactivity in brain): 0.82 %ID/g
- tissue uptake at 5 min ([1]; heart, radioactivity in heart): 1.3 %ID/g
- tissue uptake at 1 h ([1]; heart, radioactivity in heart): 0.38 %ID/g
- tissue uptake at 3 h ([1]; heart, radioactivity in heart): 0.16 %ID/g
- tissue uptake at 5 min [1, 3]: 2.55 %ID/g
- tissue uptake at 1 h [1, 3]: 1.28 %ID/g
- tissue uptake at 3 h [1, 3]: 0.75 %ID/g
- tissue uptake at 5 min ([1]; liver, radioactivity in liver): 1.17 %ID/g
- tissue uptake at 1 h ([1]; liver, radioactivity in liver): 0.89 %ID/g
- tissue uptake at 3 h ([1]; liver, radioactivity in liver): 0.51 %ID/g
- tissue uptake at 5 min ([1]; lung, radioactivity in lung): 7.34 %ID/g
- tissue uptake at 1 h ([1]; lung, radioactivity in lung): 1.42 %ID/g
- tissue uptake at 3 h ([1]; lung, radioactivity in lung): 0.61 %ID/g
- tissue uptake at 5 min [1, 4]: 0.27 %ID/g
- tissue uptake at 1 h [1, 4]: 0.16 %ID/g
- tissue uptake at 3 h [1, 4]: 0.12 %ID/g
- tissue uptake at 5 min [1, 5]: 0.5 %ID/g
- tissue uptake at 1 h [1, 5]: 1.12 %ID/g
- tissue uptake at 3 h [1, 5]: 0.66 %ID/g
- tissue uptake at 1 h ([2]; blood, + (dl)-vesamicol HCl 0.3 (Table 3) or 0.31 mg/kg, read-out: radioactivity in blood): 0.12 %ID/g
- tissue uptake at 1 h ([2]; blood, + cold (dl)3-HIPP HCl 0.53 mg/kg, read-out: radioactivity in blood): 0.13 %ID/g
- tissue uptake at 1 h [2, 6]: 0.09 %ID/g
- tissue uptake at 1 h [2, 7]: 0.26 %ID/g
- tissue uptake at 1 h ([2]; brain, + cold (dl)3-HIPP HCl 0.53 mg/kg, read-out: radioactivity in brain): 0.24 %ID/g
- tissue uptake at 1 h [2, 8]: 0.76 %ID/g
- tissue uptake at 1 h [2, 9]: 0.13 %ID/g
- tissue uptake at 1 h ([2]; heart, + cold (dl)3-HIPP HCl 0.53 mg/kg, read-out: radioactivity in heart): 0.15 %ID/g
- tissue uptake at 1 h [2, 10]: 0.36 %ID/g
- tissue uptake at 1 h [2, 11]: 0.55 %ID/g
- tissue uptake at 1 h ([2]; kidney, + cold (dl)3-HIPP HCl 0.53 mg/kg, read-out: radioactivity in kidney): 0.62 %ID/g
- tissue uptake at 1 h [2, 12]: 1.48 %ID/g
- tissue uptake at 1 h [2, 13]: 0.87 %ID/g
- tissue uptake at 1 h ([2]; liver, + cold (dl)3-HIPP HCl 0.53 mg/kg, read-out: radioactivity in liver): 0.71 %ID/g
- tissue uptake at 1 h [2, 14]: 0.86 %ID/g
- tissue uptake at 1 h [2, 15]: 0.71 %ID/g
- tissue uptake at 1 h ([2]; lung, + cold (dl)3-HIPP HCl 0.53 mg/kg, read-out: radioactivity in lung): 0.92 %ID/g
- tissue uptake at 1 h [2, 16]: 1.52 %ID/g
- tissue uptake at 1 h [2, 17]: 0.12 %ID/g
- tissue uptake at 1 h ([2]; muscle, + cold (dl)3-HIPP HCl 0.53 mg/kg, read-out: radioactivity in muscle): 0.11 %ID/g
- tissue uptake at 1 h [2, 18]: 0.17 %ID/g
- tissue uptake at 1 h [2, 19]: 0.48 %ID/g
- tissue uptake at 1 h ([2]; spleen, + cold (dl)3-HIPP HCl 0.53 mg/kg, read-out: radioactivity in spleen): 0.5 %ID/g
- tissue uptake at 1 h [2, 20]: 1.14 %ID/g
